Where only a bound is given, the exact number is not on record here.

For this assay, the target named is T1, human IL-17AA (Homo sapiens, UniProt Q16552).
T1 construct: host or cells: HEK (human embryonic kidney) cells
T1 sequence (Q16552 24-155): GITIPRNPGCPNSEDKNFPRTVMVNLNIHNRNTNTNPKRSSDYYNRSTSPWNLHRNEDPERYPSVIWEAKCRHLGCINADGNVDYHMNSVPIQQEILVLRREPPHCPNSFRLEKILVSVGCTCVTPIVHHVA
The assay is described as follows: IL-8 release assay in human epithelial keratinocytes adult (HEKa). The format is cell-based. The following applies: HEKa cells, 3 ng/mL HEK-human IL-17AA + 10 ng/mL human TNFalpha; read-out: Rel EC50 IL-8 release assay. The method, boiled down: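 Adult human epidermal keratinocytes stimulated 68-72 h at 37 °C with 3 ng/mL HEK-derived human IL-17AA plus 10 ng/mL TNF-alpha (final) in the presence of compound; TNF-alpha alone defines 100% inhibition. Secreted IL-8 measured by HTRF as percent of controls; relative IC50/Emax from four-parameter fit (r^2>0.9), cytotoxicity by PrestoBlue.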
As to `Cn1cncc1-c1ccc(NC(=O)[C@@H](NC(=O)C2(F)CC2)C(c2ccccc2)c2ccccc2)cc1` [Example 347, N-[(1S)-1-benzhydryl-2-[4-(3-methylimidazol-4-yl)anilino]-2-oxo-ethyl]-1-fluoro-cyclopropanecarboxamide], the EC50 (commonly the midpoint of the concentration-response curve) was in the range of 0.1 to 1 µM. The figure for `Cn1cnnc1-c1ccc(NC(=O)[C@@H](NC(=O)c2cnnn2-c2ccccc2)C2CCCCC2)cc1` [Example 348, N-[(1S)-1-cyclohexyl-2-[4-(4-methyl-1,2,4-triazol-3-yl)anilino]-2-oxo-ethyl]-3-phenyl-triazole-4-carboxamide] is more than 1 µM; for `CC(C)n1nccc1C(=O)N[C@H](C(=O)Nc1ccc(-c2nncn2C)cc1)C1CCCCCC1` [Example 349, N-[(1S)-1-cycloheptyl-2-[4-(4-methyl-1,2,4-triazol-3-yl)anilino]-2-oxo-ethyl]-2-isopropyl-pyrazole-3-carboxamide] it is 0.1 to 1 µM. Under `Cn1cnnc1-c1ccc(NC(=O)[C@@H](NC(=O)c2ccnn2C)C2CCCCCC2)cc1` [Example 350, N-[(1S)-1-cycloheptyl-2-[4-(4-methyl-1,2,4-triazol-3-yl)anilino]-2-oxo-ethyl]-2-methyl-pyrazole-3-carboxamide] stands more than 1 µM. With `CC(C)n1nccc1C(=O)N[C@H](C(=O)Nc1ccc(-c2nncn2C)cc1)C1CCCCC1` [Example 351, N-[(1S)-1-cyclohexyl-2-[4-(4-methyl-1,2,4-triazol-3-yl)anilino]-2-oxo-ethyl]-2-isopropyl-pyrazole-3-carboxamide], the EC50 lay within 0.1 to 1 µM. For the molecule `Cn1cnnc1-c1ccc(NC(=O)[C@@H](NC(=O)c2ccnn2C)C2CCCCC2)cc1` [Example 352, N-[(1S)-1-cyclohexyl-2-[4-(4-methyl-1,2,4-triazol-3-yl)anilino]-2-oxo-ethyl]-2-methyl-pyrazole-3-carboxamide], the EC50 is more than 1 µM.

Take `Cn1cnnc1-c1ccc(NC(=O)[C@@H](NC(=O)C2(F)CC2)C(c2ccccc2)c2ccccc2)cc1` [Example 353, N-[(1S)-1-benzhydryl-2-[4-(4-methyl-1,2,4-triazol-3-yl)anilino]-2-oxo-ethyl]-1-fluoro-cyclopropanecarboxamide]: the EC50 was more than 1 µM. `Cn1cnnc1-c1ccc(NC(=O)[C@@H](NC(=O)c2ccnn2C)C(c2ccccc2)c2ccccc2)cc1` [Example 354, N-[(1S)-1-benzhydryl-2-[4-(4-methyl-1,2,4-triazol-3-yl)anilino]-2-oxo-ethyl]-2-methyl-pyrazole-3-carboxamide]: the EC50 is more than 1 µM. For `COc1n[nH]c(C)c1-c1ccc(NC(=O)[C@@H](NC(=O)c2ccnn2C)C2CCCCC2)cc1` [Example 358, N-[(1S)-1-cyclohexyl-2-[4-(5-methoxy-3-methyl-1H-pyrazol-4-yl)anilino]-2-oxo-ethyl]-2-methyl-pyrazole-3-carboxamide], the EC50 was more than 1 µM.

As for `CCOc1n[nH]c(C)c1-c1ccc(NC(=O)[C@@H](NC(=O)c2ccnn2C)C2CCCCC2)cc1` [Example 359, N-[(1S)-1-cyclohexyl-2-[4-(5-ethoxy-3-methyl-1H-pyrazol-4-yl)anilino]-2-oxo-ethyl]-2-methyl-pyrazole-3-carboxamide], the EC50 was 0.1 to 1 µM. Consider `Cc1noc(C)c1-c1ccc(NC(=O)[C@@H](NC(=O)c2ccnn2C(C)C)C(C2CC2)C2CC2)cc1` [Example 360, N-[(1S)-1-(dicyclopropylmethyl)-2-[4-(3,5-dimethylisoxazol-4-yl)anilino]-2-oxo-ethyl]-2-isopropyl-pyrazole-3-carboxamide], for which the EC50 is less than 0.1 µM. Consider `Cc1ncoc1-c1ccc(NC(=O)[C@@H](NC(=O)c2ccnn2C(C)C)C(C2CC2)C2CC2)cc1` [Example 361, N-[(1S)-1-(dicyclopropylmethyl)-2-[4-(4-methyloxazol-5-yl)anilino]-2-oxo-ethyl]-2-isopropyl-pyrazole-3-carboxamide], for which the EC50 lay in the range of 0.1 to 1 µM.

Turning to `CCn1nccc1C(=O)N[C@H](C(=O)Nc1ccc(-c2c(C)ncn2C)c(O)c1)C(C1CC1)C1CC1` [Example 362, N-[(1S)-1-(dicyclopropylmethyl)-2-[4-(3,5-dimethylimidazol-4-yl)-3-hydroxy-anilino]-2-oxo-ethyl]-2-ethyl-pyrazole-3-carboxamide], the EC50 was in the range of 0.1 to 1 µM.

For the molecule `Cc1ncn(C)c1-c1ccc(NC(=O)[C@@H](NC(=O)c2ccnn2C(C)C)C(C2CC2)C2CC2)cc1O` [Example 363, N-[(1S)-1-(dicyclopropylmethyl)-2-[4-(3,5-dimethylimidazol-4-yl)-3-hydroxy-anilino]-2-oxo-ethyl]-2-isopropyl-pyrazole-3-carboxamide], the EC50 is less than 0.1 µM. The figure for `CCn1nccc1C(=O)N[C@H](C(=O)Nc1ccc(-c2c(C)cnn2C)c(O)c1)C(C1CC1)C1CC1` [Example 364, N-[(1S)-1-(dicyclopropylmethyl)-2-[4-(2,4-dimethylpyrazol-3-yl)-3-hydroxy-anilino]-2-oxo-ethyl]-2-ethyl-pyrazole-3-carboxamide] is less than 0.1 µM.

Turning to `Cc1cnn(C)c1-c1ccc(NC(=O)[C@@H](NC(=O)c2ccnn2C(C)C)C(C2CC2)C2CC2)cc1O` [Example 365, N-[(1S)-1-(dicyclopropylmethyl)-2-[4-(2,4-dimethylpyrazol-3-yl)-3-hydroxy-anilino]-2-oxo-ethyl]-2-isopropyl-pyrazole-3-carboxamide], the EC50 is less than 0.1 µM. As to `Cc1cnn(C)c1-c1ccc(NC(=O)[C@@H](NC(=O)c2ccnn2C(C)CO)C(C2CC2)C2CC2)cc1O` (stereo partly drawn) [Example 366, N-[(1S)-1-(dicyclopropylmethyl)-2-[4-(2,4-dimethylpyrazol-3-yl)-3-hydroxy-anilino]-2-oxo-ethyl]-2-(2-hydroxy-1-methyl-ethyl)pyrazole-3-carboxamide], the EC50 fell in the range of 0.1 to 1 µM. For `Cc1cnn(C)c1-c1ccc(NC(=O)[C@@H](NC(=O)c2ccnn2C(C)C)C(C2CC2)C2CC2)cc1` [Example 367, N-[(1S)-1-(dicyclopropylmethyl)-2-[4-(2,4-dimethylpyrazol-3-yl)anilino]-2-oxo-ethyl]-2-isopropyl-pyrazole-3-carboxamide], the EC50 is less than 0.1 µM. Under `CC(C)n1nccc1C(=O)N[C@H](C(=O)Nc1ccc(-c2c(C3(O)CC3)cnn2C)cc1)C(C1CC1)C1CC1` [Example 368, N-[(1S)-1-(dicyclopropylmethyl)-2-[4-[4-(1-hydroxycyclopropyl)-2-methyl-pyrazol-3-yl]anilino]-2-oxo-ethyl]-2-isopropyl-pyrazole-3-carboxamide] stands 0.1 to 1 µM. `CCn1nccc1C(=O)N[C@H](C(=O)Nc1ccc(-n2cnc(C)c2C)cc1)C(C1CC1)C1CC1` [Example 369, N-[(1S)-1-(dicyclopropylmethyl)-2-[4-(4,5-dimethylimidazol-1-yl)anilino]-2-oxo-ethyl]-2-ethyl-pyrazole-3-carboxamide]: the EC50 lay within 0.1 to 1 µM. In the case of `CCn1nccc1C(=O)N[C@H](C(=O)Nc1ccc(-n2c(C)c[nH]c2=O)cc1)C(C1CC1)C1CC1` [Example 370, N-[(1S)-1-(dicyclopropylmethyl)-2-[4-(4-methyl-2-oxo-1H-imidazol-3-yl)anilino]-2-oxo-ethyl]-2-ethyl-pyrazole-3-carboxamide], the EC50 was more than 1 µM.

For the molecule `CC(C)n1nccc1C(=O)N[C@H](C(=O)Nc1ccc(-c2c(C(F)(F)F)ncn2C)cc1)C1CCCCC1` [Example 371A, N-[(1S)-1-cyclohexyl-2-[4-[3-methyl-5-(trifluoromethyl)imidazol-4-yl]anilino]-2-oxo-ethyl]-2-isopropyl-pyrazole-3-carboxamide], the EC50 was 0.1 to 1 µM. As for `CC(C)n1nccc1C(=O)N[C@H](C(=O)Nc1ccc(-c2ncn(C)c2C(F)(F)F)cc1)C1CCCCC1` [Example 371B, N-[(1S)-1-cyclohexyl-2-[4-[1-methyl-5-(trifluoromethyl)imidazol-4-yl]anilino]-2-oxo-ethyl]-2-isopropyl-pyrazole-3-carboxamide], the EC50 is more than 1 µM. The figure for `Cn1cncc1-c1ccc(NC(=O)[C@@H](NC(=O)c2ccnn2C)[C@@H]2CCCc3ccccc32)cc1` [Example 375, 2-Methyl-N-[(1S)-2-[4-(3-methylimidazol-4-yl)anilino]-2-oxo-1-[(1R)-tetralin-1-yl]ethyl]pyrazole-3-carboxamide] is more than 1 µM. Under `Cn1cncc1-c1ccc(NC(=O)[C@@H](NC(=O)c2ccnn2C)[C@@H]2CCc3ccccc32)cc1` [Example 376, N-[(1S)-1-[(1R)-indan-1-yl]-2-[4-(3-methylimidazol-4-yl)anilino]-2-oxo-ethyl]-2-methyl-pyrazole-3-carboxamide] stands more than 1 µM. Take `Cn1cncc1-c1ccc(NC(=O)[C@@H](NC(=O)c2ccnn2C)[C@H]2CCc3ccccc32)cc1` [Example 377, N-[(1S)-1-[(1S)-indan-1-yl]-2-[4-(3-methylimidazol-4-yl)anilino]-2-oxo-ethyl]-2-methyl-pyrazole-3-carboxamide]: the EC50 lay within 0.1 to 1 µM. Under `Cc1nccn1-c1ccc(NC(=O)[C@@H](NC(=O)c2ccnn2C)[C@@H]2CCCc3ccccc32)cc1` [Example 378, 2-methyl-N-[(1S)-2-[4-(2-methylimidazol-1-yl)anilino]-2-oxo-1-[(1R)-tetralin-1-yl]ethyl]pyrazole-3-carboxamide] stands more than 1 µM; under `Cc1nc[nH]c1-c1ccc(NC(=O)[C@@H](NC(=O)c2ccnn2C(C)C)C(C2CC2)C2CC2)cc1` [Example 379, N-[(1S)-1-(dicyclopropylmethyl)-2-[4-(4-methyl-1H-imidazol-5-yl)anilino]-2-oxo-ethyl]-2-isopropyl-pyrazole-3-carboxamide], more than 1 µM.

Values taken from patent US11377425B1, “Small molecule modulators of IL-17” (LEO Pharma A/S, priority 2018, dated 2022).
